Data on 3 compounds can be found in US20080113063A1, “MICRONUTRIENT SUPPLEMENT” (priority 2006, published 2008).

Data set [1] can be described thus: Soluble copper versus pH on titration of TBCC mother liquor with NH4OH. Format: physicochemical. As to conditions: pH about 5.6, room temperature, ammonium chloride mother liquor. The protocol:
The starting material used for this example was mother liquor remaining after the production of tribasic copper chloride (TBCC) from spent circuit board chemical etchants. The particular sample of mother liquor was slightly acidic, contained several hundred grams per liter of ammonium chloride and about 12 g/L of dissolved copper. The series of tests were conducted at room temperature. A 400 mL sample was titrated with NH4OH solution having a specific gravity of 0.93 and containing about 16% NH3 by weight. The pH and soluble copper concentrations were measured after each increment of NH4OH solution added. The results are illustrated in FIG. 4. Precipitation of copper initiated at a pH of about 4.1 and continued until the pH reached about 5.5. It was apparent that the copper amine chloride salt was forming at least within the pH range of 4.5 to 5.6. As expected from the stoichiometry of Equation 3, about 1 mole of copper was precipitated for every 2 moles of ammonia added. For this particular series of tests, the minimum solubility of copper was about 1,000 mg/L at a pH of about 5.6. As more ammonium hydroxide was added to raise the pH above 5.6, the copper amine chloride salt dissolved to form a navy blue soluble copper tetrammine complex. At a pH above about 7.2 virtually all of the copper ammine chloride salt had dissolved. […]

In data set [2] the test system is male avian broiler chicks. In words: Bioavailability of zinc in chicks fed a zinc-free basal corn-soybean diet plus zinc source, 20-day experiment. Format: in vivo. The protocol: An experiment was conducted to compare the bioavailability of zinc from zinc diammine chloride (ZDC or Zn(NH3)2Cl2) with that of reagent grade zinc sulfate heptahydrate (ZSH or ZnSO4.7H2O). A zinc-free basal corn-soybean diet was formulated. The zinc sources were added to the basal diet at doses of 4 mg Zn per kg and 8 mg Zn per kg. The basal and experimental diets were mixed using a horizontal mixer for basal diet and a Hobart mixer for individual treatments. All diets were fed as a mash feed. Eighty male avian broiler chicks were used in the 20-day experiment. The test birds were randomly divided into 20 pens of 4 birds each. The birds were housed in thermostatically controlled, stainless steel battery cages with raised wire flooring in an environmentally controlled facility. Environmental conditions for the birds (i.e., floor space, temperature, lighting, feeder and water space) were similar for all test groups. The chicks were pretested for the first three days after hatching; and then they were switched to the basal diet until the start of the study at day eight. Water that had been deionized and distilled and feed was available for ad libitum consumption.
All feed added to the pens was recorded. Feed was weighed back at the conclusion of the trial and the feed intake was calculated. The ratio of weight gain to feed consumed was calculated for the period using the average weight gain of birds per treatment divided by the average feed consumption for the treatment throughout the test period.

With `N.N.[Cl][Cu][Cl]` [CDC, copper diammine chloride], the “minimum solubility of copper” value in data set [1] is reported as “about 1,000 mg/L”.

For the compound `N.N.[Cl][Zn][Cl]` [ZDC, zinc diammine chloride], in data set [2] (4 mg Zn per kg feed), the “improvement of overall weight gain compared to the control” value is reported as “about 37%” and the “improvement of weight gain per unit of feed compared to the control” value was “about 24%”. In data set [2] (8 mg Zn per kg feed), the “improvement of overall weight gain compared to the control” value is given as around 75% and the “improvement of weight gain per unit of feed compared to the control” value is listed as around 28%. In addition, in data set [2] (Zn 4 mg/kg added to basal diet), the “Feed Intake” value came out at 189.8 g/chick, the “Gain:Feed” value is reported as 523 g/kg and the “Weight Gain” value amounted to 99.3 g/chick. In addition, in data set [2] (Zn 8 mg/kg added to basal diet), the “Feed Intake” value is 235.3 g/chick, the “Gain:Feed” value is reported as 538 g/kg and the “Weight Gain” value was determined as 126.5 g/chick.

As to `O.O.O.O.O.O.O.O=S(=O)([O-])[O-].[Zn+2]` [ZnSO4•7H2O, zinc sulfate heptahydrate, reference compound], in data set [2] (Zn 4 mg/kg added to basal diet), the “Feed Intake” value was 201.8 g/chick, the “Gain:Feed” value is reported as 497 g/kg and the “Weight Gain” value stood at 100.5 g/chick. For the same compound, in data set [2] (Zn 8 mg/kg added to basal diet), the “Feed Intake” value is reported as 233.5 g/chick, the “Gain:Feed” value is 514 g/kg and the “Weight Gain” value was found to be 119.8 g/chick.
